In publication PMC2929374 (Chemmedchem, 2009):
pIC50, pKi: −log10 of the molar value.

target: T1, T. brucei TryR (trypanothione reductase; TyrR) (Trypanosoma brucei, UniProt P39051); assay: DTNB-coupled kinetics, global fit; format: biochemical; settings: not given
T1 sequence (P39051 whole entry): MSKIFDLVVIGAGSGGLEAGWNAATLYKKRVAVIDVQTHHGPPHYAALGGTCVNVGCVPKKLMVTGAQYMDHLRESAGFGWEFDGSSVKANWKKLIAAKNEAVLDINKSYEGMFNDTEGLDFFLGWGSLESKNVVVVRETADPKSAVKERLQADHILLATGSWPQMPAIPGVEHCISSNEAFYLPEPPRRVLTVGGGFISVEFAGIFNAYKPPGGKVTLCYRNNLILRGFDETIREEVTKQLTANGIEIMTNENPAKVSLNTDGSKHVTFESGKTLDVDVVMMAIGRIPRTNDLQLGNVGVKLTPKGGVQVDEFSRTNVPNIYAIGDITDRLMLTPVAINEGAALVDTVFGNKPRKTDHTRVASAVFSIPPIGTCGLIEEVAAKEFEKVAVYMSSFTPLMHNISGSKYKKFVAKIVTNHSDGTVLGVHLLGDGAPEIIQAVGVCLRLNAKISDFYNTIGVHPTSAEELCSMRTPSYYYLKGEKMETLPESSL

Work on `c1ccc2oc(C3(N4CCCCC4)CCCCC3)cc2c1` [compound 5] yielded a pKi of 5.84.

target: T1, T. brucei TryR (trypanothione reductase; TyrR); assay: DTNB-coupled TryR assay, absorbance, 384-well; format: biochemical; settings: not given

Compared with `c1ccc(-c2ccc(C3(N4CCCCC4)CCCCC3)cc2)cc1` [compound 4], `c1ccc2cc(C3(N4CCCCC4)CCCCC3)ccc2c1` [compound 7] is higher in pIC50: < 4.00 for the first, 4.55 for the second. The second is the more potent here.

Compared with `c1ccc2oc(C3(N4CCCCC4)CCCCC3)cc2c1` [compound 5], `c1ccc2sc(C3(N4CCCCC4)CCCC3)cc2c1` [compound 17] is 0.40 log units lower in pIC50: 5.36 for the first, 4.96 for the second.

`c1ccc2c(C3(N4CCCCC4)CCCCC3)cccc2c1` [compound 6] and `c1ccc2sc(C3(N4CCCCC4)CCCCC3)nc2c1` [compound 9] cannot be ordered by pIC50: < 4.00 for the first, < 4.00 for the second.

Compared with `Brc1ccc2sc(C3(N4CCCCC4)CCCCC3)cc2c1` [compound 12, 1-(1-(5-Bromo-benzo[b]thiophen-2-yl)cyclohexyl)piperidine], `c1ccc2sc(C3(N4CCOCC4)CCCCC3)cc2c1` [compound 15] is higher in pIC50: < 4.00 for the first, 4.96 for the second. The second is the more potent here.

Going from `CN1CCN(C2(c3cc4ccccc4s3)CCCCC2)CC1` [compound 16] to `CN1CCC(c2cc3ccccc3s2)(N2CCCCC2)CC1` [compound 18], the pIC50 rises from 5.00 to 6.03 (1.03 log units). The second is the more potent here.

Compared with `CC(C)(c1cc2ccccc2s1)N1CCCCC1` [compound 19], `c1ccc2sc(C3(N4CCCCC4)CCNCC3)cc2c1` [compound 28, 4′-(Benzo[b]thiophen-2-yl)-[1,4′]bipiperidine] is 0.47 log units higher in pIC50: 4.82 for the first, 5.29 for the second.

Going from `O=C(c1cc2ccccc2s1)C1(N2CCCCC2)CCCCC1` [compound 24, Benzo[b]thiophen-2-yl(1-(piperidin-1-yl)cyclohexyl)methanone] to `CC(=O)N1CCC(c2cc3ccccc3s2)(N2CCCCC2)CC1` [compound 29], the pIC50 rises from < 4.00 to 5.18. The second is the more potent here.

Compared with `OC(c1ccccc1)(c1ccccc1)C1(N2CCCCC2)CCCCC1` [compound 25, Diphenyl(1-(piperidin-1-yl)cyclohexyl)methanol], `O=C(c1ccccc1)N1CCC(c2cc3ccccc3s2)(N2CCCCC2)CC1` [compound 30, (4′-(Benzo[b]thiophen-2-yl)-1,4′-bipiperidinyl-1′-yl)(phenyl)methanone] is higher in pIC50: < 4.00 for the first, 4.89 for the second.

Compared with `CC(C)(C)OC(=O)N1CCC(c2cc3ccccc3s2)(N2CCCCC2)CC1` [compound 27, tert-Butyl 4′-(benzo[b]thiophen-2-yl)-1,4′-bipiperidine-1′-carboxylate], `CN(C)CC(=O)N1CCC(c2cc3ccccc3s2)(N2CCCCC2)CC1` [compound 32, 1-(4′-(Benzo[b]thiophen-2-yl)-1,4′-bipiperidinyl-1′-yl)-2-(dimethylamino)ethanone] is higher in pIC50: < 4.00 for the first, 5.59 for the second. The second is the more potent here.

First: O=C(Cc1ccccc1)N1CCC(c2cc3ccccc3s2)(N2CCCCC2)CC1 [compound 31, 1-(4′-(Benzo[b]thiophen-2-yl)-1,4′-bipiperidinyl-1′-yl)-2-phenylethanone]
Second: c1ccc(CN2CCC(c3cc4ccccc4s3)(N3CCCCC3)CC2)cc1 [compound 34, 4′-(Benzo[b]thiophen-2-yl)-1′-benzyl-1,4′-bipiperidine]
The pIC50 of the first is 0.20 log units higher: 4.92 for the first, 4.72 for the second. The first is the more potent here.

First: c1ccc2sc(C3(N4CCCCC4)CCN(CCN4CCOCC4)CC3)cc2c1 [compound 33, 4-(2-(4′-(Benzo[b]thiophen-2-yl)-1,4′-bipiperidin-1′-yl)ethyl)morpholine]
Second: CN(C)CCN1CCC(c2cc3ccccc3s2)(N2CCCCC2)CC1 [compound 35, 2-(4′-(Benzo[b]thiophen-2-yl)-1,4′-bipiperidinyl-1′-yl)-N,N-dimethylethanamine]
The pIC50 of the first is higher: 5.36 for the first, < 4.00 for the second. The first is the more potent here.

same assay, conditions: read-out: TryR IC50; pH 7.4, 40 mM HEPES, 1 mM EDTA, 6 μM trypanothione, 50 μM DTNB, 150 μM NADPH, room temperature

First: c1ccc2sc(C3(N4CCCCC4)CCCCC3)cc2c1 [compound 1, 1-(1-(Benzo[b]thiophen-2-yl)cyclohexyl)piperidine]
Second: c1ccc2sc(C3(N4CCCC4)CCCCC3)cc2c1 [compound 13]
The pIC50 of the first is 0.56 log units lower: 5.48 for the first, 6.04 for the second. The second is the more potent here.

Going from `c1csc(C2(N3CCCCC3)CCCCC2)c1` [compound 3] to `CCN(CC)C1(c2cc3ccccc3s2)CCCCC1` [compound 14], the pIC50 rises from < 4.00 to 5.30. The second is the more potent here.
